# Marks after values point to notes of the source that are not given here.
# Test system: cardiac cytokine protein levels
# Assay: Cardiac cytokine protein levels by Bio-Plex multiplex assay in aged WT mice
# Format: in vivo, mouse
# Procedure: There are 8 different sets of in vivo experiments in this study: • A) Phenotypic characterisation of the heart and blood vessels in global IRAP knockout mice and their WT controls treated for 4 weeks with Angiotensin (Ang) II (800 ng/kg/min; s.c.) where mouse hearts and blood vessels were compared to tissue obtained from young WT and IRAP^−/− mice treated with saline. • B) Prevention of Ang II-induced changes in the cardiovascular system following IRAP inhibitor treatment. In the prevention model, WT mice were treated with Ang II (800 ng/kg/min; s.c.)±the IRAP inhibitor (HFI-419; 500 ng/kg/min for 28 days) or HFI-vehicle (1 DMSO:3 HBC). • C) Phenotypic characterisation of the aged heart, kidney and blood vessels in the global IRAP knockout mice where aged WT and IRAP^−/− mouse hearts, kidneys and blood vessels were compared to tissue obtained from young WT and IRAP^−/− mice. • D) Reversal of the age-induced changes in the cardiovascular system following IRAP inhibitor treatment. In the reversal model, aged WT mice were treated with either saline, IRAP inhibitor (HFI-419 at 500 ng/kg/min; compound 1 at 500 ng/kg/min; compound 2 at 50 ng/kg/min) or HFI-vehicle (1 DMSO: 3 HBC) for 4 weeks. • E) Prevention of ischemic-reperfusion injury in isolated hearts taken from aged global IRAP knockout mice and aged IRAP inhibitor (HFI-419 at 500 ng/kg/min; s.c.) treated WT mice compared to age-matched vehicle-treated (1 DMSO:3 HBC; s.c.) WT controls. • F) Phenotypic characterization of cardiac function using echocardiography in the aged global IRAP knockout mice compared to aged and young WT mice. • G) Phenotypic characterization of liver steatosis in IRAP knockout mice in a high fat diet (HFD) model. • H) Reversal of the salt-induced fibrosis in the liver following IRAP inhibitor treatment.
# The levels of cytokines in the heart ventricles and apex were detected by using the Bio-Plex multiplex assay (Bio-rad). Tissues were snap-frozen and homogenized with a Bio-Plex cell lysis kit (Biorad) according to the manufacturer's instructions. Briefly, tissues were washed once with 300 μl of wash buffer and homogenized in lysing solutions using Tissue Lyser (Qiagen). Samples were left on ice for 30 min and centrifuged at 6,000×g for 20 min at 4° C. Supernatant was collected and protein content was determined using Biorad protein assay (Biorad). 500 μg/ml of protein were used to detect the levels of cytokines. A panel of Bio-Plex Pro™ Mouse Cytokine Standard 23-Plex, Group I (IL-1α, IL-1β, IL-2, IL-3, IL-4, IL-5, IL-6, IL-9, IL-10, IL-12(p40), IL-12(p70), IL-13, IL-17A, Eotaxin, G-CSF, GM-CSF, IFN-γ, KC, MCP-1, MIP-1α, MIP-1β, RANTES, TNFα) was used, containing 23 different antibodies covalently coupled to the beads. 50 μl of sample (500 μg/ml) or known standard (200-900 μg/ml) was added to wells of a 96-well plate which was pre-coated with the diluted coupled beads specific for each antibody and incubated at RT with shaking at 300 RPM for 30 min in the dark. After washing away any unbound substances, biotinylated detection antibodies were added to create a sandwich complex and the plate was incubated for 30 min with shaking at 300 RPM in the dark at RT. Following three washes, the final detection complex was formed with the addition of streptavidin-phycoerythrin conjugate and incubated for 10 min in the dark at RT with shaking at 300 RPM. Following 3 washes with […], beads were resuspended in 125 μl of assay buffer. The samples were read using Bio-Plex MAGPIX Multiplex Reader (Bio-Plex Suspension System). Data were calculated by the Bio-Plex Manager software.
# [1] = hearts of HFI-419-treated aged WT mice, mean ± s.e.m
# [2] = relative ratio to mean of vehicle-treated aged WT
structure (smiles),measurement,setting,value
CCOC(=O)C1=C(NC(C)=O)Oc2cc(O)ccc2C1c1cccnc1 (centres unmarked) [HFI-419],pro-inflammatory cytokines in heart,"aged WT mice, HFI-419 4 weeks vs vehicle, FIG. 14, Table 1",did not increase
same,"anti-inflammatory cytokines in heart, including IL-4, IL-9 and IL-12p40","aged WT mice, HFI-419 4 weeks vs vehicle, Table 1",marked increases
same,CCL-3 (MIP-1a) cardiac protein level,[1],2.493 ± 0.35 pg/mL
same,CCL-4 (MIP-1b) cardiac protein level,[1],92.74 ± 10.92 pg/mL
same,CCL-5 (RANTES) cardiac protein level,[1],2.839 ± 0.21 pg/mL
same,CCL-11 (Eotaxin) cardiac protein level,[1],140.3 ± 8.18 pg/mL
same,CXCL-1 (KC) cardiac protein level,[1],6.859 ± 0.34 pg/mL
same,G-CSF cardiac protein level,[1],1.912 ± 0.08 pg/mL
same,GM-CSF cardiac protein level,[1],38.18 ± 1.37 pg/mL
same,IL-1a cardiac protein level,[1],7.61 ± 0.56 pg/mL
same,IL-1b cardiac protein level,[1],69.83 ± 3.75 pg/mL
same,IL-4 cardiac protein level,[1],2.676 ± 0.06 pg/mL
same,IL-5 cardiac protein level,[1],3.96 ± 0.14 pg/mL
same,IL-6 cardiac protein level,[1],2.766 ± 0.15 pg/mL
same,IL-9 cardiac protein level,[1],557.8 ± 31.03 pg/mL
same,IL-10 cardiac protein level,[1],40.13 ± 1.36 pg/mL
same,IL-12 p40 cardiac protein level,[1],4.887 ± 0.28 pg/mL
same,IL-12 p70 cardiac protein level,[1],23.49 ± 1.83 pg/mL
same,IL-13 cardiac protein level,[1],90.19 ± 2.93 pg/mL
same,IL-17A cardiac protein level,[1],8.068 ± 0.29 pg/mL
same,L-2 cardiac protein level,[1],5.849 ± 0.78 pg/mL
same,M-CSF (IL-3) cardiac protein level,[1],1.562 ± 0.11 pg/mL
same,TNF-a cardiac protein level,[1],219.7 ± 9.76 pg/mL
same,CCL-3 (MIP-1a) Ratio of HFI to Vehicle,[2],0.88
same,CCL-4 (MIP-1b) Ratio of HFI to Vehicle,[2],0.78
same,CCL-5 (RANTES) Ratio of HFI to Vehicle,[2],1.03
same,CCL-11 (Eotaxin) Ratio of HFI to Vehicle,[2],1.29
same,CXCL-1 (KC) Ratio of HFI to Vehicle,[2],1.18
same,G-CSF Ratio of HFI to Vehicle,[2],1.02
same,GM-CSF Ratio of HFI to Vehicle,[2],0.99
same,IL-1a Ratio of HFI to Vehicle,[2],1.03
same,IL-1b Ratio of HFI to Vehicle,[2],1.16
same,IL-4 Ratio of HFI to Vehicle,[2],1.61**
same,IL-5 Ratio of HFI to Vehicle,[2],0.98
same,IL-6 Ratio of HFI to Vehicle,[2],0.98
same,IL-9 Ratio of HFI to Vehicle,[2],1.19*
same,IL-10 Ratio of HFI to Vehicle,[2],1.09
same,IL-12 p40 Ratio of HFI to Vehicle,[2],1.31
same,IL-12 p70 Ratio of HFI to Vehicle,[2],0.88
same,IL-13 Ratio of HFI to Vehicle,[2],0.96
same,IL-17A Ratio of HFI to Vehicle,[2],0.95
same,L-2 Ratio of HFI to Vehicle,[2],1.12
same,M-CSF (IL-3) Ratio of HFI to Vehicle,[2],1.02
same,TNF-a Ratio of HFI to Vehicle,[2],0.92

# — patent US11834663B2, “Fibrotic treatment” (Monash University, priority 2015, dated 2023)
